# Results published in patent publication US20230312587A1, “PTERIDINONE COMPOUNDS AND USES THEREOF” (Vertex Pharmaceutical Incorporated, priority 2018, published 2023).
# pIC50: −log10 of the molar value.
# System: β-catenin-TCF-mediated reporter transcription activity in Colo 205 cells
# Assay: Colo 205 reporter assay (TCF/LEF luciferase)
# Assay type: cell-based
# Conditions: Colo 205 TCF/LEF luciferase reporter, five hours after addition of compound; read-out: TCF reporter Colo205 IC50
# Summary of the method: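 Luciferase signal from a TCF/LEF-driven reporter, stably integrated in Colo 205 colon cancer cells, was measured 5 h after compound addition.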
row,Molecule,pIC50
1,"Cc1nc(N[C@H]2C[C@H](Oc3cc(F)c(F)c(F)c3)C2)nc2c1NC(=O)[C@H]([C@H](C)OC(C)(C)C)N2C [Compound 745, (S)-7-((S)-1-(tert-butoxy)ethyl)-4,8-dimethyl-2-(((1r,3S)-3-(3,4,5-trifluorophenoxy)cyclobutyl)amino)-7,8-dihydropteridin-6(5H)-one]",6.00 to 6.52
2,"(7S)-4,5,7,8-tetramethyl-2-((trans-3-(3,4,5-trifluorophenoxy)cyclopentyl)amino)-7,8-dihydropteridin-6(5H)-one [Compound 269]",> 6.52

# Continued, values first:
row,pIC50,Molecule
1,5.30 to 6.00,"COCC1(C)C(=O)Nc2c(C)nc(N[C@H]3C[C@H](Oc4cnc(C(F)(F)F)nc4)C3)nc2N1C (relative stereo) [Compound 710, 7-(methoxymethyl)-4,7,8-trimethyl-2-((trans-3-((2-(trifluoromethyl)pyrimidin-5-yl)oxy)cyclobutyl)amino)-7,8-dihydropteridin-6(5H)-one]"
2,6.00 to 6.52,"COCC1(C)C(=O)Nc2c(C)nc(NCc3cnn(Cc4cc(C(F)(F)F)nn4C)c3)nc2N1C (stereo not drawn) [Compound 709, 7-(methoxymethyl)-4,7,8-trimethyl-2-(((1-((1-methyl-3-(trifluoromethyl)-1H-pyrazol-5-yl)methyl)-1H-pyrazol-4-yl)methyl)amino)-7,8-dihydropteridin-6(5H)-one]"

# Same assay, conditions: Homo sapiens, COLO 205, 5 h, Colo 205 TCF/LEF luciferase reporter, five hours after addition of compound; read-out: TCF reporter Colo205 IC50
row,Molecule,pIC50
1,"Cc1nc(N[C@@H]2CCc3c2cnn3Cc2ccc(C(F)(F)F)nc2)nc2c1NC(=O)[C@H](C(C)C)N2C [Compound 520, (S)-7-isopropyl-4,8-dimethyl-2-(((R)-1-((6-(trifluoromethyl)pyridin-3-yl)methyl)-1,4,5,6-tetrahydrocyclopenta[c]pyrazol-4-yl)amino)-7,8-dihydropteridin-6(5H)-one]",≤ 5.30
2,"COc1c(F)cc(Cn2cnc(CNc3nc(C)c4c(n3)N(C)[C@@H](C(C)C)C(=O)N4)n2)cc1F [Compound 488, (S)-2-(((1-(3,5-difluoro-4-methoxybenzyl)-1H-1,2,4-triazol-3-yl)methyl)amino)-7-isopropyl-4,8-dimethyl-7,8-dihydropteridin-6(5H)-one]",5.30 to 6.00
3,"Cc1nc(N[C@H]2C[C@H](Sc3cc(F)c(F)c(F)c3)C2)nc2c1N(C)C(=O)[C@H](C)N2C [Compound 330, (7S)-4,5,7,8-tetramethyl-2-((trans-3-((3,4,5-trifluorophenyl)thio)-cyclobutyl)amino)-7,8-dihydropteridin-6(5H)-one]",6.00 to 6.52
4,"Cc1nc(NCc2cnn(Cc3cncc(F)c3)c2)nc2c1NC(=O)[C@H](C)N2C [Compound 208, (7S)-2-(((1-((5-fluoropyridin-3-yl)methyl)-1H-pyrazol-4-yl)methyl)amino)-4,7,8-trimethyl-7,8-dihydropteridin-6(5H)-one]",> 6.52
5,"Cc1nc(NCc2cnn(CCc3ccc(C(F)(F)F)nc3)c2)nc2c1NC(=O)[C@H](C)N2C [Compound 444, (7S)-4,7,8-trimethyl-2-(((1-(2-(6-(trifluoromethyl)pyridin-3-yl)ethyl)-1H-pyrazol-4-yl)methyl)amino)-7,8-dihydropteridin-6(5H)-one]",6.00 to 6.52
6,"Cc1nc(N[C@@H]2CO[C@H](COc3cc(F)c(F)c(F)c3)C2)nc2c1NC(=O)[C@H](C)N2C [Compound 308, (7S)-4,7,8-trimethyl-2-(((3S,5S)-5-((3,4,5-trifluorophenoxy)methyl)tetrahydrofuran-3-yl)amino)-7,8-dihydropteridin-6(5H)-one]",5.30 to 6.00
7,"Cc1nc(NCc2cnn(CCc3ccc(F)c(F)c3)c2)nc2c1NC(=O)[C@H](C)N2C [Compound 105, (7S)-2-(((1-(3,4-difluorophenethyl)-1H-pyrazol-4-yl)methyl)amino)-4,7,8-trimethyl-7,8-dihydropteridin-6(5H)-one]",> 6.52
8,"Cc1nc(N[C@H]2C[C@@H](NC(=O)Nc3ccc(F)c(F)c3F)C2)nc2c1NC(=O)[C@H](C)N2C [Compound 460, 1-(2,3,4-trifluorophenyl)-3-(cis-3-(((S)-4,7,8-trimethyl-6-oxo-5,6,7,8-tetrahydropteridin-2-yl)amino)cyclobutyl)urea]",> 6.52
9,"Cc1ccc(OC[C@H]2C[C@@H](Nc3nc(C)c4c(n3)N(C)[C@@H](C(C)C)C(=O)N4)C2)cn1 [Compound 571, (S)-7-isopropyl-4,8-dimethyl-2-((cis-3-(((6-methylpyridin-3-yl)oxy)methyl)cyclobutyl)amino)-7,8-dihydropteridin-6(5H)-one]",6.00 to 6.52
10,"Cc1nc(NC2CN(C(=O)c3cnon3)C2)nc2c1NC(=O)[C@H](C(C)C)N2C [Compound 617, (S)-2-((1-(1,2,5-oxadiazole-3-carbonyl)azetidin-3-yl)amino)-7-isopropyl-4,8-dimethyl-7,8-dihydropteridin-6(5H)-one]",≤ 5.30
11,"Cc1nc(N[C@H]2C[C@H](Nc3cc(C(F)(F)F)ncn3)C2)nc2c1NC(=O)[C@H](C(C)C)N2C [Compound 530, (S)-7-isopropyl-4,8-dimethyl-2-((trans-3-((6-(trifluoromethyl)pyrimidin-4-yl)amino)cyclobutyl)amino)-7,8-dihydropteridin-6(5H)-one]",≤ 5.30
12,"[2H]C([2H])([2H])c1nc(NCc2cnn(Cc3ccc(C(F)(F)F)nc3)c2)nc2c1NC(=O)[C@H](C)N2C [Compound 494, (7S)-7,8-dimethyl-4-(methyl-d3)-2-(((1-((6-(trifluoromethyl)pyridin-3-yl)methyl)-1H-pyrazol-4-yl)methyl)amino)-7,8-dihydropteridin-6(5H)-one]",> 6.52
13,"Cc1nc(NCc2cnn([C@H](C)Cc3ccccc3)c2)nc2c1NC(=O)[C@H](C)N2C [Compound 101, (7S)-4,7,8-trimethyl-2-(((1-((R)—1-phenylpropan-2-yl)-1H-pyrazol-4-yl)methyl)amino)-7,8-dihydropteridin-6(5H)-one]",> 6.52
14,"Cc1nc(N[C@H]2C[C@@H](NCc3cc(F)c(F)c(F)c3)C2)nc2c1NC(=O)[C@H](C(C)C)N2C [Compound 536, (S)-7-isopropyl-4,8-dimethyl-2-((cis-3-((3,4,5-trifluorobenzyl)amino)cyclobutyl)amino)-7,8-dihydropteridin-6(5H)-one]",> 6.52
15,"COc1c(F)cc(Cn2cc(CNc3nc(C)c4c(n3)N(C)[C@@H](C(C)C)C(=O)N4)nn2)cc1F [Compound 451, (S)-2-(((1-(3,5-difluoro-4-methoxybenzyl)-1H-1,2,3-triazol-4-yl)methyl)amino)-7-isopropyl-4,8-dimethyl-7,8-dihydropteridin-6(5H)-one]",> 6.52
16,"Cc1nc(N[C@H]2CCc3nn(Cc4ccc(C(F)(F)F)nc4)cc32)nc2c1NC(=O)[C@H](C(C)C)N2C [Compound 521, (S)-7-isopropyl-4,8-dimethyl-2-(((S)-2-((6-(trifluoromethyl)pyridin-3-yl)methyl)-2,4,5,6-tetrahydrocyclopenta[c]pyrazol-4-yl)amino)-7,8-dihydropteridin-6(5H)-one]",5.30 to 6.00
17,"Cc1nc(N[C@H]2C[C@H](NC(=O)Nc3ccc(F)c(F)c3F)C2)nc2c1NC(=O)[C@H](C)N2C [Compound 461, 1-(2,3,4-trifluorophenyl)-3-(trans-3-(((S)-4,7,8-trimethyl-6-oxo-5,6,7,8-tetrahydropteridin-2-yl)amino)cyclobutyl)urea]",5.30 to 6.00

# Further lines, results first:
row,pIC50,Molecule
1,≤ 5.30,"Cc1nc(CC(=O)N2CC(Nc3nc(C)c4c(n3)N(C)[C@@H](C(C)C)C(=O)N4)C2)c(C)s1 [Compound 628, (S)-2-((1-(2-(2,5-dimethylthiazol-4-yl)acetyl)azetidin-3-yl)amino)-7-isopropyl-4,8-dimethyl-7,8-dihydropteridin-6(5H)-one]"
2,> 6.52,"Cc1nc(N[C@H]2C[C@H](Cn3nccc3C(F)(F)F)C2)nc2c1NC(=O)C1(CCOC1)N2C (relative stereo) [Compound 688, 4′,8′-dimethyl-2′-((trans-3-((5-(trifluoromethyl)-1H-pyrazol-1-yl)methyl)cyclobutyl)amino)-4,5,5′,8′-tetrahydro-2H,6′H-spiro[furan-3,7′-pteridin]-6′-one]"
3,6.00 to 6.52,"COC1(C2C(=O)Nc3c(C)nc(NCc4cnn(Cc5ccc(C(F)(F)F)nc5)c4)nc3N2C)CC1 (stereo not drawn) [Compound 665, 7-(1-methoxycyclopropyl)-4,8-dimethyl-2-(((1-((6-(trifluoromethyl)pyridin-3-yl)methyl)-1H-pyrazol-4-yl)methyl)amino)-7,8-dihydropteridin-6(5H)-one]"
4,6.00 to 6.52,"Cc1nc(NC2CN(C(=O)c3cc(F)c(F)c(F)c3)C2)nc2c1NC(=O)[C@H](C)N2C [Compound 740, (S)-4,7,8-trimethyl-2-((1-(3,4,5-trifluorobenzoyl)azetidin-3-yl)amino)-7,8-dihydropteridin-6(5H)-one]"
5,6.00 to 6.52,"Cc1nc(N[C@H]2C[C@@H](Cn3cnc(C(F)(F)F)c3)C2)nc2c1NC(=O)[C@H](C(C)C)N2C [Compound 680, (S)-7-isopropyl-4,8-dimethyl-2-((cis-3-((4-(trifluoromethyl)-1H-imidazol-1-yl)methyl)cyclobutyl)amino)-7,8-dihydropteridin-6(5H)-one]"
6,≤ 5.30,"Cc1nc(N[C@H]2C[C@@H](N(C)c3cnc(C(F)(F)F)cn3)C2)nc2c1NC(=O)[C@H](C)N2C [Compound 653, (S)-4,7,8-trimethyl-2-((cis-3-(methyl(5-(trifluoromethyl)pyrazin-2-yl)amino)cyclobutyl)amino)-7,8-dihydropteridin-6(5H)-one]"
7,6.00 to 6.52,Cc1nc(N[C@H]2CCN(C(=O)c3cc(F)c(F)c(F)c3)C2)nc2c1NC(=O)[C@H](C(C)C)N2C [Compound I-509]
8,> 6.52,"CC[C@H]1C(=O)Nc2c(C)nc(N[C@H]3C[C@@H](Nc4cnc(C(F)(F)F)cn4)C3)nc2N1C [Compound 648, (S)-7-ethyl-4,8-dimethyl-2-((cis-3-((5-(trifluoromethyl)pyrazin-2-yl)amino)cyclobutyl)amino)-7,8-dihydropteridin-6(5H)-one]"

# Same assay, conditions: Homo sapiens, COLO 205, 5 h, R-isomer at C2 (corresponding to C2 S-isomer); Colo 205 TCF/LEF luciferase reporter, 5 h; read-out: TCF reporter Colo205 IC50
row,pIC50,Molecule
1,6.00 to 6.52,C[C@@H]1C(=O)N(C)c2cnc(NCc3cnn(Cc4ccc(F)cc4)c3)nc2N1C [Compound I-809]
